This experiment concerns the target Pim-1 kinase (Homo sapiens, UniProt P11309). Kind of experiment: luminescence-based kinase assay (ADP to ATP, Ultra-Glo Luciferase), Pim-1 assay. It counts as biochemical. The following applies: for class as Pim-1 kinase inhibitor (in words): Figures 10, 11 and 13; for pIC50: in vitro enzyme inhibition, read-out: Pim-1 kinase inhibitory activity IC50. The text has this:
Enzyme activity was quantified using a luminescence-based kinase assay, which tracks the conversion of ADP to ATP, subsequently producing light via Ultra-Glo™ Luciferase. This luminescence is indicative of ADP levels and thus, enzyme activity. This method is particularly effective for analyzing the influence of various chemicals on different kinases, serving both initial screenings and specificity profiling.
The inhibitory concentration (IC50) values, expressed in micromolar (μM), were obtained from the Pim-1 assay. These values were converted to their corresponding negative logarithmic scale (pIC50) to facilitate a linear comparison using the following formula: pIC50=−log10 IC50 in M Where IC50 values were first converted from μM to molar (M) units before logarithmic transformation. Pulling force values, measured in pN, were sourced from the SMD experiments.

The results in this text go back to paper PMC11491346, “Molecular insights and inhibitory dynamics of flavonoids in targeting Pim-1 kinase for cancer therapy” (Frontiers in Pharmacology, 2024).

pIC50: −log10 of the molar value.

Chain of Pim-1 kinase (P11309 whole entry): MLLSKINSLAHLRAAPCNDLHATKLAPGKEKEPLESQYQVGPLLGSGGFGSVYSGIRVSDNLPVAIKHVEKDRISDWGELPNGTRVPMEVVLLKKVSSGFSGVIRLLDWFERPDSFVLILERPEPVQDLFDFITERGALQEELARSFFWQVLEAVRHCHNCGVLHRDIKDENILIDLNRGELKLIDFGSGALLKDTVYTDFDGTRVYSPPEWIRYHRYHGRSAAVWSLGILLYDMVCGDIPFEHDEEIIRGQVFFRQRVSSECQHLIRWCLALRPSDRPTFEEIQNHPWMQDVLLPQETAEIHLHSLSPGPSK

For `O=c1cc(-c2ccccc2)oc2cccc(O)c12` [5-Hydroxyflavone], the “class as Pim-1 kinase inhibitor (in words)” value is “could not inhibit Pim-1 kinase activity”. The same measure, in the same setting: to `O=c1cc(-c2ccccc2)oc2ccc(O)cc12` [6-Hydroxyflavone] belongs “could not inhibit Pim-1 kinase activity”. Consider `O=c1cc(-c2ccccc2)oc2cc(O)ccc12` [7-Hydroxyflavone], for which, for the setting “listed as 7-ydroxyflavone”, the “class as Pim-1 kinase inhibitor (in words)” value is “could not inhibit Pim-1 kinase activity”.

Usually pIC50 stands for the negative decadic logarithm of the IC50, by convention in mol/L. As for `O=c1c(O)c(-c2ccccc2)oc2ccccc12` [Compound 4, 3-Hydroxyflavone], the pIC50 is 4.45. As for `O=c1cc(-c2ccccc2)oc2cc(O)cc(O)c12` [Compound 6], the pIC50 is 5.27. On the same count and under the same terms, the same measure for `O=c1cc(-c2ccccc2)oc2cc(O)c(O)c(O)c12` [Compound 7]: 5.25; for `O=c1c(O)c(-c2ccccc2)oc2cc(O)cc(O)c12` [Compound 8, Galangin]: 5.74.

With `O=c1c(O)c(-c2ccc(O)cc2)oc2cc(O)cc(O)c12` [Compound 9, Kaempferol], the pIC50 was 5.75. The same measure, in the same setting: the same measure for `O=c1cc(-c2ccc(O)cc2)oc2cc(O)cc(O)c12` [Compound 10]: 5.28; for `O=c1cc(-c2ccc(O)c(O)c2)oc2cc(O)cc(O)c12` [Compound 11]: 5.33.
